Literature values as cited in patent US20150366832A1, “CARBIDOPA/LEVODOPA GASTRORETENTIVE DRUG DELIVERY” (INTEC PHARMA LTD., priority 2008, published 2015).

| crossing of the blood-brain barrier (human, in vivo) | half-life (Carbidopa and Levodopa administered together) | plasma half-life (without Carbidopa) | SMILES | reduction of the amount of Levodopa required to produce a given response (Carbidopa given with Levodopa) |
| --- | --- | --- | --- | --- |
| does not cross the blood-brain barrier | – | – | C[C@@](Cc1ccc(O)c(O)c1)(NN)C(=O)O [Carbidopa] | about 75% |
| – | about 1.5 hours | about 50 minutes | N[C@@H](Cc1ccc(O)c(O)c1)C(=O)O [Levodopa] | – |
